# Test results from the NIST ThermoML archive (doi:10.1021/je700294p).
# Numbers after ± are expanded uncertainties.
# How the values were obtained:
# [1] = xn = mol fraction of the nth substance listed; details: 101 kPa, Liquid
# [2] = excess molar enthalpy (molar enthalpy of mixing); xn = mol fraction of the nth substance listed; details: 101 kPa, Liquid
# [3] = refractive index (Na D-line) (dimensionless); details: 101.33 kPa, Liquid, Standard Abbe refractometry
# [4] = 101.33 kPa, Liquid, Vibrating tube method
smiles,measurement,setting,value
CCCC[n+]1cccc(C)c1.F[B-](F)(F)F [1-butyl-3-methylpyridinium tetrafluoroborate] + O,mass density,"[1]; 298.15 K, x1 = 0.0182",1027.1 ± 0.5 kg/m3
same,mass density,"[1]; 298.15 K, x1 = 0.0376",1050.3 ± 0.5 kg/m3
same,mass density,"[1]; 298.15 K, x1 = 0.0567",1067.1 ± 0.5 kg/m3
same,mass density,"[1]; 298.15 K, x1 = 0.0995",1093.7 ± 0.5 kg/m3
same,mass density,"[1]; 298.15 K, x1 = 0.1608",1116.8 ± 0.5 kg/m3
same,mass density,"[1]; 298.15 K, x1 = 0.2208",1131.4 ± 0.5 kg/m3
same,mass density,"[1]; 298.15 K, x1 = 0.2975",1143.6 ± 0.5 kg/m3
same,mass density,"[1]; 298.15 K, x1 = 0.3909",1154 ± 0.6 kg/m3
same,mass density,"[1]; 298.15 K, x1 = 0.4861",1161.5 ± 0.6 kg/m3
same,mass density,"[1]; 298.15 K, x1 = 0.5827",1167.2 ± 0.7 kg/m3
same,mass density,"[1]; 298.15 K, x1 = 0.6761",1171.8 ± 0.7 kg/m3
same,mass density,"[1]; 298.15 K, x1 = 0.8091",1176.6 ± 0.8 kg/m3
same,mass density,"[1]; 298.15 K, x1 = 0.8376",1177.6 ± 0.8 kg/m3
same,mass density,"[1]; 298.15 K, x1 = 0.8942",1179.4 ± 0.8 kg/m3
same,mass density,"[1]; 318.15 K, x1 = 0.0466",1046.8 ± 0.4 kg/m3
same,mass density,"[1]; 318.15 K, x1 = 0.1004",1080.4 ± 0.4 kg/m3
same,mass density,"[1]; 318.15 K, x1 = 0.1523",1099.8 ± 0.4 kg/m3
same,mass density,"[1]; 318.15 K, x1 = 0.1991",1112.4 ± 0.5 kg/m3
same,mass density,"[1]; 318.15 K, x1 = 0.251",1122.2 ± 0.5 kg/m3
same,mass density,"[1]; 318.15 K, x1 = 0.3038",1130.2 ± 0.5 kg/m3
same,mass density,"[1]; 318.15 K, x1 = 0.4108",1141.5 ± 0.6 kg/m3
same,mass density,"[1]; 318.15 K, x1 = 0.5062",1148.8 ± 0.6 kg/m3
same,mass density,"[1]; 318.15 K, x1 = 0.5822",1153.3 ± 0.6 kg/m3
same,mass density,"[1]; 318.15 K, x1 = 0.7042",1158.9 ± 0.7 kg/m3
same,mass density,"[1]; 318.15 K, x1 = 0.7551",1160.9 ± 0.8 kg/m3
same,mass density,"[1]; 318.15 K, x1 = 0.7904",1162.3 ± 0.8 kg/m3
same,mass density,"[1]; 318.15 K, x1 = 0.8123",1163.2 ± 0.8 kg/m3
same,mass density,"[1]; 318.15 K, x1 = 0.8988",1165.7 ± 0.8 kg/m3
same,mass density,"[1]; 318.15 K, x1 = 0.918",1166.3 ± 0.8 kg/m3
same,excess molar enthalpy,"[2]; 298.15 K, x1 = 0.006",0.0186 ± 0.00143 kcal/mol
same,excess molar enthalpy,"[2]; 298.15 K, x1 = 0.0137",0.0399 ± 0.00167 kcal/mol
same,excess molar enthalpy,"[2]; 298.15 K, x1 = 0.0226",0.0636 ± 0.00215 kcal/mol
same,excess molar enthalpy,"[2]; 298.15 K, x1 = 0.0328",0.0894 ± 0.00239 kcal/mol
same,excess molar enthalpy,"[2]; 298.15 K, x1 = 0.0448",0.117 ± 0.00287 kcal/mol
same,excess molar enthalpy,"[2]; 298.15 K, x1 = 0.058",0.146 ± 0.00359 kcal/mol
same,excess molar enthalpy,"[2]; 298.15 K, x1 = 0.0724",0.175 ± 0.00406 kcal/mol
same,excess molar enthalpy,"[2]; 298.15 K, x1 = 0.0876",0.205 ± 0.00478 kcal/mol
same,excess molar enthalpy,"[2]; 298.15 K, x1 = 0.1038",0.235 ± 0.00526 kcal/mol
same,excess molar enthalpy,"[2]; 298.15 K, x1 = 0.1204",0.264 ± 0.00574 kcal/mol
same,excess molar enthalpy,"[2]; 298.15 K, x1 = 0.1234",0.268 ± 0.00598 kcal/mol
same,excess molar enthalpy,"[2]; 298.15 K, x1 = 0.1415",0.298 ± 0.00645 kcal/mol
same,excess molar enthalpy,"[2]; 298.15 K, x1 = 0.1713",0.326 ± 0.00693 kcal/mol
same,excess molar enthalpy,"[2]; 298.15 K, x1 = 0.1993",0.35 ± 0.00741 kcal/mol
same,excess molar enthalpy,"[2]; 298.15 K, x1 = 0.2307",0.372 ± 0.00789 kcal/mol
same,excess molar enthalpy,"[2]; 298.15 K, x1 = 0.2676",0.387 ± 0.00813 kcal/mol
same,excess molar enthalpy,"[2]; 298.15 K, x1 = 0.3091",0.391 ± 0.00837 kcal/mol
same,excess molar enthalpy,"[2]; 298.15 K, x1 = 0.3573",0.383 ± 0.00813 kcal/mol
same,excess molar enthalpy,"[2]; 298.15 K, x1 = 0.4051",0.366 ± 0.00789 kcal/mol
same,excess molar enthalpy,"[2]; 298.15 K, x1 = 0.4511",0.349 ± 0.00741 kcal/mol
same,excess molar enthalpy,"[2]; 298.15 K, x1 = 0.5139",0.318 ± 0.00693 kcal/mol
same,excess molar enthalpy,"[2]; 298.15 K, x1 = 0.6139",0.261 ± 0.00574 kcal/mol
same,excess molar enthalpy,"[2]; 298.15 K, x1 = 0.7899",0.151 ± 0.00359 kcal/mol
same,excess molar enthalpy,"[2]; 318.15 K, x1 = 0.0058",0.0227 ± 0.00167 kcal/mol
same,excess molar enthalpy,"[2]; 318.15 K, x1 = 0.0136",0.0519 ± 0.00215 kcal/mol
same,excess molar enthalpy,"[2]; 318.15 K, x1 = 0.0231",0.0841 ± 0.00263 kcal/mol
same,excess molar enthalpy,"[2]; 318.15 K, x1 = 0.0339",0.116 ± 0.00311 kcal/mol
same,excess molar enthalpy,"[2]; 318.15 K, x1 = 0.0459",0.149 ± 0.00359 kcal/mol
same,excess molar enthalpy,"[2]; 318.15 K, x1 = 0.0605",0.184 ± 0.0043 kcal/mol
same,excess molar enthalpy,"[2]; 318.15 K, x1 = 0.0774",0.222 ± 0.00502 kcal/mol
same,excess molar enthalpy,"[2]; 318.15 K, x1 = 0.0961",0.26 ± 0.00574 kcal/mol
same,excess molar enthalpy,"[2]; 318.15 K, x1 = 0.1167",0.299 ± 0.00645 kcal/mol
same,excess molar enthalpy,"[2]; 318.15 K, x1 = 0.1225",0.306 ± 0.00669 kcal/mol
same,excess molar enthalpy,"[2]; 318.15 K, x1 = 0.1348",0.329 ± 0.00717 kcal/mol
same,excess molar enthalpy,"[2]; 318.15 K, x1 = 0.1378",0.334 ± 0.00717 kcal/mol
same,excess molar enthalpy,"[2]; 318.15 K, x1 = 0.1574",0.369 ± 0.00789 kcal/mol
same,excess molar enthalpy,"[2]; 318.15 K, x1 = 0.1845",0.402 ± 0.0086 kcal/mol
same,excess molar enthalpy,"[2]; 318.15 K, x1 = 0.2023",0.435 ± 0.00908 kcal/mol
same,excess molar enthalpy,"[2]; 318.15 K, x1 = 0.2358",0.464 ± 0.0098 kcal/mol
same,excess molar enthalpy,"[2]; 318.15 K, x1 = 0.2685",0.488 ± 0.0103 kcal/mol
same,excess molar enthalpy,"[2]; 318.15 K, x1 = 0.3026",0.502 ± 0.0105 kcal/mol
same,excess molar enthalpy,"[2]; 318.15 K, x1 = 0.3403",0.513 ± 0.0108 kcal/mol
same,excess molar enthalpy,"[2]; 318.15 K, x1 = 0.3889",0.512 ± 0.0108 kcal/mol
same,excess molar enthalpy,"[2]; 318.15 K, x1 = 0.4492",0.493 ± 0.0103 kcal/mol
same,excess molar enthalpy,"[2]; 318.15 K, x1 = 0.5301",0.453 ± 0.00956 kcal/mol
same,excess molar enthalpy,"[2]; 318.15 K, x1 = 0.6433",0.366 ± 0.00789 kcal/mol
same,excess molar enthalpy,"[2]; 318.15 K, x1 = 0.8206",0.201 ± 0.00454 kcal/mol
CCCCO [butan-1-ol],refractive index,[3]; 298.15 K,1.3968 ± 0.0005
same,refractive index,[3]; 318.15 K,1.39 ± 0.0005
same,mass density,[4]; 298.15 K,805.95 ± 0.31 kg/m3
same,mass density,[4]; 318.15 K,790.27 ± 0.31 kg/m3
CCO [ethanol],refractive index,[3]; 298.15 K,1.36 ± 0.0005
same,refractive index,[3]; 318.15 K,1.3548 ± 0.0005
same,mass density,[4]; 298.15 K,785.15 ± 0.31 kg/m3
same,mass density,[4]; 318.15 K,767.57 ± 0.31 kg/m3
CO [methanol],refractive index,[3]; 298.15 K,1.3268 ± 0.0005
same,refractive index,[3]; 318.15 K,1.319 ± 0.0005
same,mass density,[4]; 298.15 K,786.44 ± 0.31 kg/m3
same,mass density,[4]; 318.15 K,768.04 ± 0.31 kg/m3
CCCO [propan-1-ol],refractive index,[3]; 298.15 K,1.3831 ± 0.0005
same,refractive index,[3]; 318.15 K,1.3757 ± 0.0005
same,mass density,[4]; 298.15 K,799.7 ± 0.31 kg/m3
same,mass density,[4]; 318.15 K,783.16 ± 0.31 kg/m3
